Measurements as given in US8741886B2, “Baclofen and acamprosate based therapy of neurological disorders” (Pharnext, priority 2011, dated 2014).

Legend:
[1] = tested on: Human brain microvascular endothelial cerebral cells (HBMEC); assay: Toxicity of human Aβ1-42 peptide on HBMEC: total length of capillary network; assay type: cell-based; settings: Aβ1-42 2.5 μM; single drugs at the concentrations used in the combination
Method: Human brain microvascular endothelial cell cultures were used to study the protection afforded by candidate compound(s) on Aβ1-42 toxicity.
Human brain microvascular endothelial cerebral cells (HBMEC, ScienCell Ref: 1000, frozen at passage 10) were rapidly thawed in a waterbath at +37° C. The supernatant was immediately put in 9 ml Dulbecco's modified Eagle's medium (DMEM; Pan Biotech ref: P04-03600) containing 10% of foetal calf serum (FCS; GIBCO ref 10270-106). […]
• Negative Control: medium alone+0.1% DMSO • Intoxication: amyloid-β1-42 (2.5 μM) for 18 h • Positive control: VEGF-165 (10 nM) (1 reference compound/culture) 1 hr before the Aβ1-42 (2.5 μM) addition for a 18 h incubation time. • Test compounds: Test compound(s) 1 hr before the Aβ1-42 (2.5 μM) addition for a 18 h incubation time. Capillary Network Quantification
Per well, 2 pictures with 4× lens were taken using InCell Analyzer™ 1000 (GE Healthcare) in light transmission. […] The total length of capillary network was assessed.
Data were expressed in percentage of control conditions (no intoxication, no amyloid=100%) in order to express the amyloid injury. All values were expressed as mean+/−SEM (s.e.mean) of the 3 cultures (n=6 wells per condition). […]

[2] = tested on: rat primary cortical cells; assay: Toxicity of human Aβ1-42 peptide on primary cortical neuron cells: LDH release; assay type: cell-based; settings: for effect on Aβ1-42 intoxication, LDH release (in words): Aβ1-42 10 μM, single drugs at the concentrations used in the combination
Method: Rat cortical neurons were cultured as described by Singer et al. (47). Briefly pregnant female rats of 15 days gestation were killed by cervical dislocation (Rats Wistar) and the foetuses were removed from the uterus. The cortex was removed and placed in ice-cold medium of Leibovitz (L15) containing 2% of Penicillin 10.000 U/ml and Streptomycin 10 mg/ml and 1% of bovine serum albumin (BSA). Cortexes were dissociated by trypsin for 20 min at 37° C. (0.05%). The reaction was stopped by the addition of Dulbecco's modified Eagle's medium (DMEM) containing DNasel grade II and 10% of foetal calf serum (FCS). Cells were then mechanically dissociated by 3 serial passages through a 10 ml pipette and centrifuged at 515×g for 10 min at +4° C. The supernatant was discarded and the pellet of cells was re-suspended in a defined culture medium consisting of Neurobasal supplemented with B27 (2%), L-glutamine (0.2 mM), 2% of PS solution and 10 ng/ml of BDNF. Viable cells were counted in a Neubauer cytometer using the trypan blue exclusion test. The cells were seeded at a density of 30 000 cells/well in 96 well-plates (wells were pre-coated with poly-L-lysine (10 μg/ml)) and were cultured at +37° C. in a humidified air (95%)/CO2 (5%) atmosphere.
Briefly, Aβ1-42 peptide was reconstituted in define culture medium at 40 μM (mother solution) and was slowly shaken at +37° C. for 3 days in dark. The control medium was prepared in the same conditions.
After 10 days of neuron culture, test compounds were solved in culture medium (+0.1% DMSO) and then pre-incubated with neurons for 1 hour before the Aβ1-42 application (in a final volume per culture well of 100 μl). One hour after test compound(s) incubation, 100 μl of Aβ1-42 peptide was added to a final concentration of 10 μM diluted in presence of drug(s), in order to avoid further test compound(s) dilutions. Cortical neurons were intoxicated for 24 hours. Three separate cultures were performed per condition, 6 wells per condition.
BDNF (50 ng/ml) and Estradiol-β (150 nM) were used as positive control and reference compounds respectively. Three separate cultures will be performed per condition, 12 wells per condition.
Estradiol-β at 150 nM was used as a positive control (FIG. 4).
Estradiol-β was solved in culture medium and pre-incubated for 1 h before the amyloid-β1-42 application.
The following conditions were assessed: • CONTROL PLAQUE: 12 wells/condition • Negative Control: medium alone+0.1% DMSO • Intoxication: amyloid-β1-42 (10 μM) for 24 h • Reference compound: Estradiol (150 nM) 1 hr. • DRUG PLATE: 6 wells/condition • Negative Control: medium alone+0.1% DMSO • Intoxication: amyloid-β1-42 (10 μM) for 24 h • Test compound(s): test compound(s)—1 hr followed by amyloid-β1-42 (10 μM) for 24 h Lactate Dehydrogenase (LDH) Activity Assay
24 hours after intoxication, the supernatant was taken off and analyzed with Cytotoxicity Detection Kit (LDH, Roche Applied Science, ref: 11644793001, batch: 11800300). This colorimetric assay for the quantification of cell toxicity is based on the measurement of lactate dehydrogenase (LDH) activity released from the cytosol of dying cells into the supernatant.
Data were expressed in percentage of control conditions (no intoxication, no amyloid=100%) in order to express the amyloid injury. All values were expressed as mean+/−SEM (s.e.mean) of the 3 cultures (n=6 wells per condition). Statistic analyses were done on the different conditions (ONE-WAY ANOVA followed by the Dunnett's test when it was allowed, Statview software version 5.0).

SMILES	effect on Aβ1-42 intoxication, total length of capillary network (in words) [1]	prevention of Aβ1-42 intoxication by pre-treatment ([2]; 8 nM)	effect on Aβ1-42 intoxication, LDH release (in words) [2]
CC(=O)NCCCS(=O)(=O)O [Acamprosate]	no significant effect	99%	no significant effect
NCC(CC(=O)O)c1ccc(Cl)cc1 (centres unmarked) [Baclofen]	no significant effect		no significant effect
